# Measurements as given in publication PMC12445744, “Molecular docking to homology models of human and Trypanosoma brucei ERK8 that identified ortholog-specific inhibitors” (PLOS Neglected Tropical Diseases, 2025).
# Several values for one entry are separate records, joined by “and”; a condition that tells them apart may be missing. Equal values may be shown once.
# Molecular target: T1, TbERK8 (Trypanosoma brucei brucei, UniProt Q38B88)
# T1 sequence (Q38B88 1-442): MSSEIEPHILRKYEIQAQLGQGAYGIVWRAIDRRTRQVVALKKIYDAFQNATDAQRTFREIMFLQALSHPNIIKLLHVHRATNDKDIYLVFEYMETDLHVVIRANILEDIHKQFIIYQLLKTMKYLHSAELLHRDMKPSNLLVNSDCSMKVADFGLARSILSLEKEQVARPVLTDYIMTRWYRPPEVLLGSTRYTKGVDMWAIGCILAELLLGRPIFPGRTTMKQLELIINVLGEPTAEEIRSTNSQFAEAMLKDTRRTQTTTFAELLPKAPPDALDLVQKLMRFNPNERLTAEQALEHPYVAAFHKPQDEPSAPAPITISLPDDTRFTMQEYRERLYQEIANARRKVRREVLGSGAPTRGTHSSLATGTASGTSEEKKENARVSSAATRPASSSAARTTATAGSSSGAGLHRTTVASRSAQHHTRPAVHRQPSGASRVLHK
# Experiment: Luciferase-based kinase inhibition assay (ATP luminescence), GST-tagged TbERK8 with MBP substrate
# Assay type: biochemical
# Set-up: raw luminescence, TbERK8: unit of the concentration uncertain
# Details: for raw luminescence, TbERK8: replicate wells; for Luminescence Raw (Kinase-Glo): TbERK8
# Experimental: Escherichia coli strain Rosetta 2 (DE3) (Cat# 71397, MilliporeSigma, Burlington, MA) was transformed with the plasmid pGEX2T expressing the full-length hERK8 coding region or pGSTAg expressing the full-length TbERK8 coding region. One liter of Terrific Broth media containing 100 μg/ml Ampicillin and 30 μg/ml chloramphenicol in 2 L baffled flasks was inoculated with 25 mL from an overnight culture of Rosetta 2 strains harboring either the pGEX2T-hERK8 or pGSTAg-TbERK8 plasmid. Two baffled flasks were inoculated with each overnight strain and incubated and shaken at 175 RPM in a New Brunswick Innova 44R Incubator Shaker (Fischer Scientific, Pittsburgh, PA) at 37 °C until the cultures reached an O.D.600 of 0.94. Once the cultures in the flask reached the target O.D.600, the flasks were cooled to 4 °C in an ice water bath. The cooled cultures were induced by adding isopropyl β-D-1-thiogalactopyranoside (IPTG) to a final concentration of 0.1 mM and shaken at 16 °C for 16 hours at 175 RPM in a New Brunswick Innova 44R Incubator Shaker (Fischer Scientific, Pittsburgh, PA). On the next day, the cultures were pelleted by centrifugation at 9000 xg in a JLA 10.500 rotor (Beckman Coulter; Brea, CA), and the media was decanted. The pellet was flash-frozen in liquid nitrogen and then thawed on ice. The thawed pellet was resuspended in lysis buffer (25 mM Tris, 75 mM NaCl, 0.5% TritonX-100 and 0.5% Nonidet P-40, 1 mM phenylmethanesulfonyl fluoride, 1 mM benzamidine⋅HCl) and lysed using a microfluidizer M-110P from Microfluidics (Westwood, MA). The crude lysates were clarified by centrifugation at 140,000 xg in a 45Ti rotor (Beckman Coulter, Brea, CA) for 30 min at 4°C. The clarified lysate was loaded by gravity to a 3 mL glutathione agarose resin column (Cat# G-250–10, GOLDBIO, St. Louis, MO) formed in a 1.5 × 20 cm glass chromatography column (Cat# 7371522, Bio-Rad, Hercules, CA). The column was washed with 30 mL of PBS (pH 7.4) containing 1 mM DTT. Elution buffer (50 mM Tris buffer pH 8.0 containing 10 mM reduced glutathione and 1 mM DTT was added to the washed column), and 1 mL fractions were collected by gravity and examined by SDS-PAGE stained by Coomassie dye. Peak fractions pooled from the elution were dialyzed (4x 1:500 dilutions) in kinase buffer (30 mM Tris, pH 7.4, 10 mM MgCl2, 1 mM DTT, 5% glycerol).
# We performed kinase assays in buffer K (30 mM Tris pH 7.4, 10 mM MgCl2, 1 mM DTT, 5% glycerol, 50 μM ATP, and 0.1 mg/mL BSA) at 30°C for 30 min in 30 μL reactions. GST-tagged HsERK8 and TbERK8 were tested using myelin basic protein (MBP) (Cat# 13–110, Millipore, Darmstadt, Germany) as the substrate at increasing concentrations to determine the optimal activity for the assay. ATP consumption was determined by adding equal volumes of the kinase assay reagent (Promega, Cat# V5601, Madison, WI) following the manufacturer’s protocol. Luminescence was measured using the microplate reader (SpectraMax L, Molecular Devices, Sunnyvale, CA).
# These compounds were screened for kinase inhibition utilizing a luciferase-based assay. Briefly, the kinases were tested using MBP as the substrate at a 14-fold molar excess in 384-well flat-bottom white plates (BRANDTECH Scientific, Cat# 781681, Essex, CT). These compounds were tested at concentrations ranging from […] to 150 nM. The kinases plus MBP substrate reactions were incubated with each inhibitor for 30 minutes at 30°C. Equal volumes of kinase assay mix Promega (Cat# V5601, Madison, WI) were added to the kinase/inhibitor reaction after 30 minutes, following the manufacturer’s protocol. ATP luminescence was measured using a microplate reader (SpectraMax L, Molecular Devices, Sunnyvale, CA). IC50 values were calculated from assays done in triplicate by fitting the data using Prism 8.1.1 (GraphPad).
structure (smiles),measurement,setting,value
C[C@]12C=CC(=O)C=C1CC[C@@H]1[C@@H]2[C@@H](O)C[C@@]2(C)[C@H]1CC[C@]2(O)C(=O)CO [Prednisolone],IC50,,> 10 mM
same,"raw luminescence, TbERK8","0.00015 (unit uncertain) compound, sheet ADP_ATP_glo081724 (3)",151.546 RLU and 115.356 RLU and 183.213 RLU
same,"raw luminescence, TbERK8","0.00015 (unit uncertain) compound, sheet Kinase_glo 08142024 (2)",851.739 RLU and 832.717 RLU and 648.843 RLU
same,"raw luminescence, TbERK8","0.00015 (unit uncertain) compound, sheet Kinase_glo_080924_IFPS (2)",2863.49 RLU and 2847.77 RLU and 2549.07 RLU
same,"raw luminescence, TbERK8","0.00061 (unit uncertain) compound, sheet ADP_ATP_glo081724 (3)",126.666 RLU and 99.523 RLU and 185.475 RLU
same,"raw luminescence, TbERK8","0.00061 (unit uncertain) compound, sheet Kinase_glo 08142024 (2)",699.567 RLU and 777.766 RLU and 826.377 RLU
same,"raw luminescence, TbERK8","0.00061 (unit uncertain) compound, sheet Kinase_glo_080924_IFPS (2)",1033.1 RLU and 1001.66 RLU and 918.564 RLU
same,"raw luminescence, TbERK8","0.00244 (unit uncertain) compound, sheet ADP_ATP_glo081724 (3)",151.546 RLU and 108.57 RLU and 214.879 RLU
same,"raw luminescence, TbERK8","0.00244 (unit uncertain) compound, sheet Kinase_glo 08142024 (2)",716.475 RLU and 665.751 RLU and 646.73 RLU
same,"raw luminescence, TbERK8","0.00244 (unit uncertain) compound, sheet Kinase_glo_080924_IFPS (2)",2143.15 RLU and 2092.68 RLU and 2029.79 RLU
same,"raw luminescence, TbERK8","0.00977 (unit uncertain) compound, sheet ADP_ATP_glo081724 (3)",255.593 RLU and 147.022 RLU and 271.426 RLU
same,"raw luminescence, TbERK8","0.00977 (unit uncertain) compound, sheet Kinase_glo 08142024 (2)",437.494 RLU and 490.331 RLU and 469.196 RLU
same,"raw luminescence, TbERK8","0.00977 (unit uncertain) compound, sheet Kinase_glo_080924_IFPS (2)",2030.86 RLU and 2806.27 RLU and 2958.99 RLU
same,"raw luminescence, TbERK8","0.03906 (unit uncertain) compound, sheet ADP_ATP_glo081724 (3)",165.118 RLU and 117.618 RLU and 199.046 RLU
same,"raw luminescence, TbERK8","0.03906 (unit uncertain) compound, sheet Kinase_glo 08142024 (2)",667.865 RLU and 653.07 RLU and 765.085 RLU
same,"raw luminescence, TbERK8","0.03906 (unit uncertain) compound, sheet Kinase_glo_080924_IFPS (2)",2637.83 RLU and 2496.34 RLU and 2622.11 RLU
same,"raw luminescence, TbERK8","0.15625 (unit uncertain) compound, sheet ADP_ATP_glo081724 (3)",334.759 RLU and 251.069 RLU and 300.831 RLU
same,"raw luminescence, TbERK8","0.15625 (unit uncertain) compound, sheet Kinase_glo 08142024 (2)",1037.73 RLU and 1041.95 RLU and 1113.81 RLU
same,"raw luminescence, TbERK8","0.15625 (unit uncertain) compound, sheet Kinase_glo_080924_IFPS (2)",2180.42 RLU and 2133.34 RLU and 2264.78 RLU
same,"raw luminescence, TbERK8","0.62500 (unit uncertain) compound, sheet ADP_ATP_glo081724 (3)",495.353 RLU and 366.425 RLU and 545.114 RLU
same,"raw luminescence, TbERK8","0.62500 (unit uncertain) compound, sheet Kinase_glo 08142024 (2)",1265.98 RLU and 1276.55 RLU and 1342.07 RLU
same,"raw luminescence, TbERK8","0.62500 (unit uncertain) compound, sheet Kinase_glo_080924_IFPS (2)",3642.09 RLU and 3777.07 RLU and 3651.3 RLU
same,"raw luminescence, TbERK8","2.50000 (unit uncertain) compound, sheet ADP_ATP_glo081724 (3)",791.659 RLU and 658.208 RLU and 870.825 RLU
same,"raw luminescence, TbERK8","2.50000 (unit uncertain) compound, sheet Kinase_glo 08142024 (2)",2855.33 RLU and 2339.64 RLU and 2348.09 RLU
same,"raw luminescence, TbERK8","2.50000 (unit uncertain) compound, sheet Kinase_glo_080924_IFPS (2)",13901.1 RLU and 13588.9 RLU and 13357.6 RLU
same,"raw luminescence, TbERK8","10.00000 (unit uncertain) compound, sheet ADP_ATP_glo081724 (3)",8500.16 RLU and 8653.97 RLU and 8624.56 RLU
same,"raw luminescence, TbERK8","10.00000 (unit uncertain) compound, sheet Kinase_glo 08142024 (2)",38026 RLU and 38805.9 RLU and 42117.7 RLU
same,"raw luminescence, TbERK8","10.00000 (unit uncertain) compound, sheet Kinase_glo_080924_IFPS (2), signal = ATP left",19789.8 RLU and 19980.7 RLU and 19481.5 RLU
same,Luminescence Raw (Kinase-Glo),"inhibitor 0.00976562 mM, sheet Sil_Pred3, read 3",32992.2 and 33121 and 33174.9
same,Luminescence Raw (Kinase-Glo),"inhibitor 0.0195312 mM, sheet Sil_Pred3, read 3",38593.5 and 41076.8 and 40952.6
same,Luminescence Raw (Kinase-Glo),"inhibitor 0.0390625 mM, sheet Sil_Pred3, read 3",46486.1 and 45877 and 46038.6
same,Luminescence Raw (Kinase-Glo),"inhibitor 0.078125 mM, sheet Sil_Pred3, read 3",44202 and 48636.7 and 49203.6
same,Luminescence Raw (Kinase-Glo),"inhibitor 0.15625 mM, sheet Sil_Pred3, read 3",45380.3 and 46230.7 and 46420.5
same,Luminescence Raw (Kinase-Glo),"inhibitor 0.3125 mM, sheet Sil_Pred3, read 3",39235.4 and 40486.4 and 39917.2
same,Luminescence Raw (Kinase-Glo),"inhibitor 0.625 mM, sheet Sil_Pred3, read 3",39298.7 and 39928.9 and 40873
same,Luminescence Raw (Kinase-Glo),"inhibitor 0.00976562, sheet Sil_Pred1, read 1",36007.1 and 35961.3 and 35122.3
same,Luminescence Raw (Kinase-Glo),"inhibitor 0.00976562, sheet Sil_Pred2, read 2",32848.9 and 34114.2 and 33997.9
same,Luminescence Raw (Kinase-Glo),"inhibitor 0.0195312, sheet Sil_Pred1, read 1",43841.6 and 45072.5 and 44815.8
same,Luminescence Raw (Kinase-Glo),"inhibitor 0.0195312, sheet Sil_Pred2, read 2",39947.1 and 42452 and 42749.7
same,Luminescence Raw (Kinase-Glo),"inhibitor 0.0390625, sheet Sil_Pred1, read 1",50695.1 and 50667.6 and 49805.8
same,Luminescence Raw (Kinase-Glo),"inhibitor 0.0390625, sheet Sil_Pred2, read 2",46810.4 and 47329.1 and 47238.4
same,Luminescence Raw (Kinase-Glo),"inhibitor 0.078125, sheet Sil_Pred1, read 1",49017.3 and 54222.7 and 54701.7
same,Luminescence Raw (Kinase-Glo),"inhibitor 0.078125, sheet Sil_Pred2, read 2",44868.4 and 49845.5 and 51285.2
same,Luminescence Raw (Kinase-Glo),"inhibitor 0.15625, sheet Sil_Pred1, read 1",51194.8 and 52235.4 and 51680.7
same,Luminescence Raw (Kinase-Glo),"inhibitor 0.15625, sheet Sil_Pred2, read 2",47366.3 and 47915.2 and 47922.2
same,Luminescence Raw (Kinase-Glo),"inhibitor 0.3125, sheet Sil_Pred1, read 1",44343.6 and 45716.6 and 43953.9
same,Luminescence Raw (Kinase-Glo),"inhibitor 0.3125, sheet Sil_Pred2, read 2",41235.6 and 41775.2 and 41631
same,Luminescence Raw (Kinase-Glo),"inhibitor 0.625, sheet Sil_Pred1, read 1",43960.8 and 44712.6 and 44414.7
same,Luminescence Raw (Kinase-Glo),"inhibitor 0.625, sheet Sil_Pred2, read 2",40144.8 and 41517 and 41924
